These are literature values, as cited in US20070254006A1, “Medical Devices and Coatings with Non-Leaching Antimicrobial Peptides” (Massachusetts Institute of Technology, priority 2006, published 2007).

The test system of one series is avidin and streptavidin. The note with it: interaction with avidin and streptavidin.
The test system of a further series is Staphylococcus aureus. The note with it: Dacron graft soaked in peptide solution before implanting in a rat, bacterial challenge.

Regarding `O=C(O)CCCC[C@@H]1SC[C@@H]2NC(=O)N[C@@H]21` [Biotin], the Ka in the series on avidin and streptavidin is 10^15 M^−1.

Regarding dermaseptin, the “incidence of device colonization and infection” value in the series on Staphylococcus aureus is “reduces the incidence of device colonization and infection”.
